15 molecules from PubChem BioAssay (NCI) can be followed below.

SMILES strings stand for the structures.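 Step 1: Grow cells in 96-well plates. Step 2: Expose to compound for 48 hours at 5 concentrations. Step 3: Interpolate endpoints linearly; if unreached, use highest concentration. At the GI50, growth is halved. TGI: concentration producing complete growth inhibition.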

Common to all, as to assay: inhibition of tumour cell growth, NCI panel, 48 h
Experiment [1] has as its system TK-10 renal.
The subject of experiment [2] is CAKI-1 renal.
The test system of experiment [3] is RPMI-8226 leukemia.
The subject of experiment [4] is MDA-N.
Experiment [5] relates to MDA-MB-435.
Experiment [6] has as its system ACHN renal.
In experiment [7] the test system is NCI-H522 lung.
In experiment [8] the test system is CCRF-CEM leukemia.
Experiment [9] has as its system COLO 205 colon.
In experiment [10] the test system is SR leukemia.

Turning to `COc1ccc(/C=C2\CCC(CNc3ccc(OC)cc3)C2=O)cc1` (configuration not stated), the TGI was 36 µM in [1]; 41 µM in [2]; more than 24 µM in experiment [3]; 30.8 µM in experiment [4]; 40.6 µM in [5]; 58.6 µM in experiment [6]. For the same molecule, the figures for the TGI in experiment [7], in experiment [8] and in experiment [9] were 11.6 µM, 29.9 µM and 31.9 µM, respectively.
In the case of `COc1ccc2sc(-n3nc4ccccc4c3Nc3nc4ccc(OC)cc4s3)nc2c1`, the TGI was 11.8 µM in experiment [1]; 6.89 µM in experiment [2]; 7.12 µM in [3]; more than 100 µM in experiment [10]; 12 µM in experiment [5]; 11.2 µM in experiment [6]. Besides, the TGI in [7] is 17.2 µM; in experiment [8] it was more than 100 µM; in [9], more than 63.9 µM.
On to `O=C(O)c1cn2c3c(cc(N4CCN(CCO)CC4)cc3c1=O)SCC2`, for which the TGI in experiment [2] was more than 100 µM; in experiment [3], more than 100 µM; in [7], 94.2 µM; in experiment [8] it was more than 100 µM; in [9], more than 100 µM.
`CCn1cc(C(=O)O)c(=O)c2cc3c(cc21)S(=O)(=O)CC3`: the TGI in [1], in experiment [2], in experiment [3], in experiment [4], in experiment [5] and in experiment [6] was more than 100 µM each time. For the same molecule, the TGI in experiment [7], in experiment [8] and in experiment [9] was more than 100 µM each time.
For `O=S(=O)(O)ON=C1c2ccccc2-c2ccccc21`, the TGI in experiment [1], in experiment [2], in experiment [3], in experiment [10], in experiment [5] and in experiment [6] was more than 100 µM each time. For the same molecule, the TGI in [7], in experiment [8] and in experiment [9] was more than 100 µM each time.
As to `O=C1CCC(=O)N1n1c(Cc2ccc(Cl)cc2)n[nH]c1=O`, the TGI in experiment [1], in experiment [2], in experiment [3], in experiment [4], in experiment [5] and in experiment [6] was more than 100 µM each time. Besides, the TGI in [7] and in experiment [9] was more than 100 µM throughout.
`O=C1[C@@H]2[C@@H](c3ccccc3)[C@]2(Cl)C(=O)[C@H]2[C@H](c3ccccc3)[C@@]12Cl`: the TGI in experiment [1], in [2], in experiment [10], in experiment [5], in [6] and in [7] was more than 100 µM throughout. Moreover, the TGI in [8] and in experiment [9] was more than 100 µM in each case.
On to `N#CCCN(CCC#N)c1ccc(/C=C2\N=C(c3ccccc3)N(NC(N)=S)C2=O)cc1`, for which the TGI in [1], in experiment [2], in [3], in experiment [4], in [5] and in [6] was more than 100 µM each time. The TGI in experiment [8] and in [9] was more than 100 µM throughout.
As to `C/C(=C/C(=O)Nn1c(Cc2ccccc2)n[nH]c1=O)C(=O)O`, the TGI in experiment [1], in [2], in [3], in experiment [4], in experiment [5] and in experiment [6] was more than 100 µM throughout. The TGI in experiment [7], in [8] and in experiment [9] was more than 100 µM each time.
In the case of `Nc1nc(N)c2ncn(Cc3ccccc3CCl)c2n1`, the TGI in [1], in experiment [2], in experiment [3], in [10], in [5] and in [6] was more than 100 µM in each case. Also, the TGI in [7], in experiment [8] and in [9] was more than 100 µM in each case.
Regarding `Cn1/c(=N\S(=O)(=O)c2ccccc2)n(S(=O)(=O)c2ccccc2)c2ccccc21`, the TGI in [1], in experiment [2], in experiment [3], in experiment [4], in [5] and in [6] was more than 100 µM each time. For the same molecule, the figures for the TGI in experiment [7], in experiment [8] and in experiment [9] were more than 100 µM, 83.3 µM and more than 100 µM, respectively.
For `CC1OC(O[C@H]2C3C=CO[C@@H](OC4OC(CO)C(O)C(O)C4O)C3[C@@]3(COC(=O)/C=C/c4ccc(O)cc4)O[C@@H]23)C(O)C(O)C1O` (some centres not stated), the TGI in [1], in experiment [2], in experiment [3], in [4], in [5] and in experiment [6] was more than 100 µM throughout. Moreover, the TGI in experiment [7] and in experiment [9] was more than 100 µM throughout.
With `Cc1ccc(OC2CC(n3cnc4ncnc(Cl)c43)OC2Oc2ccc(C)cc2)cc1` (configuration not stated), the TGI was more than 100 µM in experiment [1]; 5.93 µM in experiment [2]; more than 100 µM in [10]; more than 100 µM in experiment [4]; more than 100 µM in [5]; 10.5 µM in experiment [6]. Moreover, the TGI in [7] was more than 100 µM; in experiment [9] it was 46.5 µM.
Take `CC1(CCCO)CCCCCCCCCC(C)(CCCO)C1=O` (configuration not stated): the TGI in [2], in experiment [3], in experiment [4], in experiment [5], in [6] and in [7] was more than 100 µM in each case. The TGI in experiment [8] and in experiment [9] was more than 100 µM each time.
With `COc1cc(/C=C/C(=O)c2c(C)nc3ccccc3c2C)ccc1OCCCOc1cc2c(cc1OC)C(=O)N1CCC[C@H]1C=N2`, the GI50 in experiment [1] is 0.0257 µM; in [2] it was 0.0291 µM; in experiment [3] it was 0.014 µM; in [10], 0.0321 µM; in [5], 0.0197 µM; in [6], 0.0313 µM. For the same molecule, the GI50 in experiment [7] was 0.0337 µM; in [9] it was 0.0211 µM. The TGI in [1] is 0.0682 µM; in experiment [2] it was 0.138 µM; in experiment [3], 0.0477 µM; in experiment [5], 0.04 µM; in [6], 0.106 µM; in experiment [7], 22.9 µM. Also, the TGI in experiment [8] worked out at 0.0215 µM; in experiment [9] it was 0.0453 µM.
